# According to publication PMC12320693, “Non-edible onion skin waste as a source of bioactive agents for functional foods development: Chemical composition and multifunctional bioactivity” (Food Chemistry: X, 2025):
# Like-named read-outs stand apart in the source and are kept apart here.
# Legend:
# [1] = Nitric oxide radical scavenging activity; format: biochemical
# Procedure: The capacity of the onion skin extracts to scavenge the nitric oxide (^●NO) radical was assessed using the method described by [Ferreres et al. (2021)]. This involved mixing 100 μL of the extract solutions, diluted in 0.1 M phosphate buffer (pH 7.4), with the same volume of 20 mM sodium nitroprusside dihydrate. After a 60 min incubation under light, the Griess reagent (100 μL) was added, followed by 10 min incubation in the dark, and absorbance was measured at 560 nm. Quercetin was used as positive control. At least five different concentrations were tested for each onion skin extract, with a minimum of three independent experiments conducted in triplicate. A control was prepared replacing sample with buffer, and a blank with phosphoric acid instead of the Griess reagent.
# [2] = Superoxide anion radical scavenging activity; format: biochemical
# Procedure: The ability of the onion skin extracts to scavenge the superoxide anion (O2^●-) radical was determined according to [Ferreres et al. (2021)]. Equal volumes (50 μL) of the extract solutions, diluted in 19 mM phosphate buffer (pH 7.4), and 0.166 mM NADH, and three volumes of 0.043 mM nitrotetrazolium blue chloride were combined. The reaction was initiated by adding 50 μL of 2.7 μM phenazine methosulfate, and absorbance was recorded at 560 nm. A control was prepared substituting sample with buffer.
# α-glucosidase = biological target: T1, α-glucosidase (Saccharomyces cerevisiae, UniProt P53341); assay: α-Glucosidase activity assay (pure enzyme); format: biochemical
# T1 construct: purchased Sigma-Aldrich (St. Louis, MO, USA)
# T1 sequence (P53341 whole entry): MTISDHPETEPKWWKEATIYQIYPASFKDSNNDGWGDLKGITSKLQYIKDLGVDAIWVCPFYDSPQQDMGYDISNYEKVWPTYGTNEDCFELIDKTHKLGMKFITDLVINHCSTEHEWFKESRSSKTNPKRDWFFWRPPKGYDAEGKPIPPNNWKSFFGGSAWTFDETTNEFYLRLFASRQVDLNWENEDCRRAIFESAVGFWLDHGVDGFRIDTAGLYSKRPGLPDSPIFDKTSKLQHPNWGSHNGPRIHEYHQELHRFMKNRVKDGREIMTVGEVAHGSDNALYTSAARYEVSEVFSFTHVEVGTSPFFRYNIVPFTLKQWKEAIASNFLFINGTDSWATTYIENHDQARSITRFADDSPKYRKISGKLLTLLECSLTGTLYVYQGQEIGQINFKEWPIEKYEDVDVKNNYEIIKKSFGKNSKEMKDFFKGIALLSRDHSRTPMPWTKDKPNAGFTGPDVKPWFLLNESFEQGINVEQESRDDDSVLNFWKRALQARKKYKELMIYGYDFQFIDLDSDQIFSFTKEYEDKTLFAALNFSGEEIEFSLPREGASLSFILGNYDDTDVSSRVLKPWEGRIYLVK
# Procedure: Enzymes for in vitro enzymatic assays were aldose-reductase (Homo sapiens, human) from Prozomix (UK), α-amylase (porcine pancreas), α-glucosidase (Saccharomyces cerevisiae), acetylcholinesterase from Electrophorus electricus, lipoxygenase from Glycine max (soybean), tyrosinase from mushroom, xanthine oxidase from bovine milk, all provided by Sigma-Aldrich (St. Louis, MO, USA).
# α-Glucosidase activity was evaluated incubating 180 μL of a mixture of the extract solutions, prepared in 10 mM potassium phosphate buffer (pH 7.0), and 20 μL of the enzyme solution at 37 °C for 2 min. Absorbance at 405 nm was measured after adding 100 μL of 2.5 mM 4-nitrophenyl-α-D-glucopyranoside, and after 10 min incubation.
# 5-LOX (lipoxygenase) = biological target: T2, 5-LOX (lipoxygenase) (Glycine max, UniProt P08170); assay: Lipoxygenase (5-LOX) activity assay; format: biochemical, Glycine max (soybean)
# T2 construct: purchased Sigma-Aldrich (St. Louis, MO, USA)
# T2 sequence (P08170 whole entry): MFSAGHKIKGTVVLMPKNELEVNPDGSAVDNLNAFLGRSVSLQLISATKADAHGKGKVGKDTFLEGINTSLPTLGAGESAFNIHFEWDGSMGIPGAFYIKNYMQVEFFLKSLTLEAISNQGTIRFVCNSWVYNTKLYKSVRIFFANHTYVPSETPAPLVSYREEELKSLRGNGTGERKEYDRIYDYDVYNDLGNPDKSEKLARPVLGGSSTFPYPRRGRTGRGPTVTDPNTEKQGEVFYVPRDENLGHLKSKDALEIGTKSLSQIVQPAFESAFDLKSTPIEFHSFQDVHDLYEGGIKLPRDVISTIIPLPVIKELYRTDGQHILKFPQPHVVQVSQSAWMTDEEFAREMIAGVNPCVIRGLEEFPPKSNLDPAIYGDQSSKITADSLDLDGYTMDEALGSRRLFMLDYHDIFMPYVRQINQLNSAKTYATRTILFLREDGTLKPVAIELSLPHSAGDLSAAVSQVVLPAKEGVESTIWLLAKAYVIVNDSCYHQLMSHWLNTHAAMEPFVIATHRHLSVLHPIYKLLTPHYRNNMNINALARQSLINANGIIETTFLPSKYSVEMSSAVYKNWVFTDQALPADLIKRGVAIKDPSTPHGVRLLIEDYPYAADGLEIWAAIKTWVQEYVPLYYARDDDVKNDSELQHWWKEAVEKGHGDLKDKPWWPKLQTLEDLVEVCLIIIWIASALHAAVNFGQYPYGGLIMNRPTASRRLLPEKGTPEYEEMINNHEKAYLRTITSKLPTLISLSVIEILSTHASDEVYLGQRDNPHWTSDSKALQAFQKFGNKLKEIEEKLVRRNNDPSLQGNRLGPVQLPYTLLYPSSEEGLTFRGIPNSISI
# Procedure: The ability of the extracts and pure compounds to inhibit 5-LOX activity was assessed by measuring their capacity to prevent linoleic oxidation. In short, 200 μL of the extract solutions, diluted in 100 mM phosphate buffer (pH 9.0), was mixed with 20 μL of the enzyme solution and 20 μL of 4.18 mM linoleic acid prepared in ethanol, and the absorbance at 234 nm was measured. A control was prepared with buffer instead of sample ([Trigueros, Oliveira, et al., 2024]).
# xanthine oxidase = biological target: T3, xanthine oxidase (Bos taurus, UniProt P80457); assay: Xanthine oxidase inhibition assay; format: biochemical
# T3 construct: purchased Sigma-Aldrich (St. Louis, MO, USA); host or cells: bovine milk
# T3 sequence (P80457 whole entry): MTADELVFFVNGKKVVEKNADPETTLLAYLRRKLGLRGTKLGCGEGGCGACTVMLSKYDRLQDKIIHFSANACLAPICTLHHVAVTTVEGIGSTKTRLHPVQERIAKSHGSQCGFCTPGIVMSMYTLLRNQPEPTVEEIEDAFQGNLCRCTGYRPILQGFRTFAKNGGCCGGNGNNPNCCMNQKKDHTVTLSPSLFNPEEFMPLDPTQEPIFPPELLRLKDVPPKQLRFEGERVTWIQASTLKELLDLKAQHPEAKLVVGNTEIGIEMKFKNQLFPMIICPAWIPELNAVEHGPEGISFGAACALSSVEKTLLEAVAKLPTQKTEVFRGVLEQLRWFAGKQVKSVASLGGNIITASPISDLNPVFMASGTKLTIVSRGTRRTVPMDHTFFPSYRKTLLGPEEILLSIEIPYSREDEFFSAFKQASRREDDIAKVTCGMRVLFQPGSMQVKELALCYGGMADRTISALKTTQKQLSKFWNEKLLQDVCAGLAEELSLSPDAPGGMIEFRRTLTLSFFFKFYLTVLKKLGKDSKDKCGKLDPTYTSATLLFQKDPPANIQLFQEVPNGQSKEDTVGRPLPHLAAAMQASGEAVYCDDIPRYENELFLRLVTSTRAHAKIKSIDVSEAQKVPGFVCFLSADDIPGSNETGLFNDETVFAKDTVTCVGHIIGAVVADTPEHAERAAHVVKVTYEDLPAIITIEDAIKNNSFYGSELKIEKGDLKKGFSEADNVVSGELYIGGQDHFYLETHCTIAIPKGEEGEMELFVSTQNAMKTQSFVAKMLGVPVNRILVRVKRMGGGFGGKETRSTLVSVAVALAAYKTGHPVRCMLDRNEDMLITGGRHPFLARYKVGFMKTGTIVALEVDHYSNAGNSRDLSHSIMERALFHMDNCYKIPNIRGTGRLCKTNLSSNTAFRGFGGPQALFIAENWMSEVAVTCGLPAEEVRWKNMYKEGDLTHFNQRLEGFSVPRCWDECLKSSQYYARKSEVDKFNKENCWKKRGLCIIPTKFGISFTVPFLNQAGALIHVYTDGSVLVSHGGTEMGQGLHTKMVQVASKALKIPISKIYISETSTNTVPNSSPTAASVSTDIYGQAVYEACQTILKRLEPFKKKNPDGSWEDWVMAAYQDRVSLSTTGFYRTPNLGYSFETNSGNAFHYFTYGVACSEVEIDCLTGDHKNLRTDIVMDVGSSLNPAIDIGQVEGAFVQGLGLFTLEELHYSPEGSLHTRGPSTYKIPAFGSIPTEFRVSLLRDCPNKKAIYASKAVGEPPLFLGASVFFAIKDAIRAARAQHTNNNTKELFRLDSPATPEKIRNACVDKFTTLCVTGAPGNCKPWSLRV
# Procedure: Xanthine oxidase activity was determined using a previously established method by monitoring the conversion of xanthine to uric acid ([Trigueros, Oliveira, et al., 2024]). 200 μL of the extract solutions, diluted in 5 mM phosphate buffer (pH 7.4), was mixed with 10 μL of xanthine oxidase solution, incubated for 5 min at 37 °C, followed by the addition of 40 μL of 1.25 mM xanthine solution, and absorbance was measured at 295 nm. A control assay was prepared with buffer.
# acetylcholinesterase = biological target: T4, acetylcholinesterase (Electrophorus electricus, UniProt O42275); assay: Acetylcholinesterase (AChE) inhibition assay; format: biochemical
# T4 construct: purchased Sigma-Aldrich (St. Louis, MO, USA)
# T4 sequence (O42275 24-633): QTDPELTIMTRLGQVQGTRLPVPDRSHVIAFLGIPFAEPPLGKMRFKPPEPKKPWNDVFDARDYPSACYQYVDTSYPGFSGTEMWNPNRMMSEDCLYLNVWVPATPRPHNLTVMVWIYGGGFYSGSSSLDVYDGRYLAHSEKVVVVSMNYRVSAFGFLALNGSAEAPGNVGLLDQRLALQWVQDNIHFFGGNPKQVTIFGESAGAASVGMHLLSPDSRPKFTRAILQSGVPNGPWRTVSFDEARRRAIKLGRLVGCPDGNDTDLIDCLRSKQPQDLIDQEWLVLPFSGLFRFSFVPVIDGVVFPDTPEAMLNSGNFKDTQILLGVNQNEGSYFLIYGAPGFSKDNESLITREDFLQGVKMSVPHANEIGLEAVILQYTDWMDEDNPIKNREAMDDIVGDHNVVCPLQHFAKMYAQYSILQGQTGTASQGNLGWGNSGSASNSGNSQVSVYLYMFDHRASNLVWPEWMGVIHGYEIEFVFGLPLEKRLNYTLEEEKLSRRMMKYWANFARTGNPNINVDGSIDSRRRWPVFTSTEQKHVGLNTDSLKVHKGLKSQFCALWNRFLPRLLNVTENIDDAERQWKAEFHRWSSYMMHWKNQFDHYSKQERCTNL
# Procedure: Acetylcholinesterase activity was assessed combining 75 μL of the extract solutions, prepared in 50 mM Tris-HCl buffer (pH 8.0), plus 0.1 % (w/v) albumin, with 25 μL of 15 mM ATCI and 125 μL of 3 mM DTNB. The formation of 5-thio-2-nitrobenzoate was monitored at 405 nm ([Trigueros, Oliveira, et al., 2024]).
# [3] = system: Candida albicans (ATCC 10231); assay: Antifungal activity, Candida albicans; format: cell-based
# Procedure: (§1) Three yeast strains (Candida albicans (ATCC 10231), Candida krusei (ATCC 6258), and Cryptococcus neoformans (CECT1078)) and filamentous fungi (one Aspergillus fumigatus (ATCC 204305) and three dermatophytes (Trichophyton rubrum (FF5), Nannizzia gypsea (formerly Microsporum gypseum-FF3) and Epidermophyton floccosum (FF9)) were used in this work. Sub-cultures were prepared in Sabouraud Dextrose Agar medium (SDA) from 1–2 days (yeasts and Aspergillus) to 5–7 days (dermatophytes) to ensure optimal growth conditions and purity.
# (§2) Fungal organisms were cultured in SDA and then suspended in RPMI-1640 broth. Serial dilutions of the onion skin extract solutions, prepared from a stock solution (8 mg/mL in DMSO), were prepared in RPMI-1640 broth, starting at a concentration of 4 mg/mL. Sample dilutions and cell suspensions were distributed into 96 well plates and incubated under aerobic, humid conditions at 26 °C for dermatophytes and 36 °C for the other organisms. Incubation times were 5 to 7 days for dermatophytes, 72 h for C. neoformans, and 48 h for the remaining organisms. […] In cases where MIC was determined, 20 μL from wells without visible growth were cultured on SDA plates, incubating under the same conditions previously described for each organism. The Minimal Fungicidal Concentration (MFC) was then determined as the lowest concentration where complete no growth was observed on the SDA plates. All the experiments were conducted in triplicate.
# [4] = system: Candida krusei (ATCC 6258); assay: Antifungal activity, Candida krusei; format: cell-based; settings: Pichia kudriavzevii, ATCC6258
# Procedure: as §1, §2
# [5] = system: Cryptococcus neoformans (CECT1078); assay: Antifungal activity, Cryptococcus neoformans; format: cell-based
# Procedure: as §1, §2
# [6] = system: Aspergillus fumigatus (ATCC 204305); assay: Antifungal activity, Aspergillus fumigatus; format: cell-based
# Procedure: as §1, §2
# [7] = system: Trichophyton rubrum (FF5); assay: Antifungal activity, Trichophyton rubrum; format: cell-based
# Procedure: as §1, §2
# [8] = system: Nannizzia gypsea (formerly Microsporum gypseum-FF3); assay: Antifungal activity, Nannizzia gypsea; format: cell-based
# Procedure: as §1, §2
# [9] = system: Epidermophyton floccosum (FF9); assay: Antifungal activity, Epidermophyton floccosum; format: cell-based
# Procedure: as §1, §2
# [10] = ref Yuting et al., 1990; cited from earlier work
# [11] = set-up: method as in Li et al., 2011; settings: ref Li et al., 2011; cited from earlier work
# [12] = set-up: method as in Li et al., 2011; settings: ref Li et al., 2011; cited from earlier work; remark: listed apart in the source
# [13] = set-up: method as in Li et al., 2011; settings: ref Li et al., 2011; cited from earlier work; remark: listed apart in the source
# [14] = system: NO production in LPS-induced BV-2 cells; set-up: method as in Sun et al., 2015; settings: ref Sun et al., 2015; cited from earlier work
# [15] = 100 % growth inhibition, read-out: MIC
compound,measurement,setting,value
O=C(O)c1ccc(O)c(O)c1 [Protocatechuic acid],"IC25, ●NO scavenging",[1],237 ± 16 mg/L
same,●NO scavenging activity,[1]; at the maximum tested concentration (1.33 mg/mL),below 40%
same,"IC50, O2●- scavenging",[2],252 ± 8 mg/L
same,IC50,α-glucosidase,2760 µM
same,IC50,5-LOX (lipoxygenase),247 µM
same,IC50,xanthine oxidase,908 µM
same,"IC25, AChE",acetylcholinesterase,1809 ± 31 mg/L
same,MFC,[3]; ATCC10231,> 4000 mg/L
same,MIC,[3]; ATCC10231,> 4000 mg/L
same,MFC,[4],> 4000 mg/L
same,MIC,[4],> 4000 mg/L
same,MFC,[5]; CECT1078,2000 mg/L
same,MIC,"[5]; CECT1078, read-out: MIC, ≥ 95 % growth inhibition",1000 mg/L
same,MFC,[6]; ATCC204305,> 4000 mg/L
same,MIC,[6]; ATCC204305,> 4000 mg/L
same,MFC,[7],2000 mg/L
same,MIC,[7],2000 mg/L
same,MIC,"[7]; read-out: MIC, 90 % growth inhibition",1000 mg/L
same,MFC,[8],> 4000 mg/L
same,MIC,[8],> 4000 mg/L
same,MFC,[9],2000 mg/L
same,MIC,[9],500 mg/L
same,"IC50, O2●- scavenging",[10],310 mg/L
same,"IC50, DPPH",[11],1.88 mg/L
same,"IC50, ABTS",[12],0.89 mg/L
same,"IC50, hydroxyl radicals",[13],74 mg/L
O=c1c(O)c(-c2ccc(O)c(O)c2)oc2cc(O)cc(O)c12 [Quercetin],"IC50, ●NO scavenging",[1],49 ± 2 mg/L
same,"IC50, O2●- scavenging",[2],22.4 ± 1.1 mg/L
same,MIC,"[3]; ATCC10231, 100 % growth inhibition, read-out: MIC",> 4000 mg/L
same,MFC,"[3]; ATCC10231, read-out: MFC",> 4000 mg/L
same,MIC,"[4]; Candida krusei, 100 % growth inhibition, read-out: MIC",≥ 4000 mg/L
same,MFC,"[4]; Candida krusei, read-out: MFC",> 4000 mg/L
same,MIC,"[5]; CECT1078, 100 % growth inhibition, read-out: MIC",1000 mg/L
same,MFC,"[5]; CECT1078, read-out: MFC",2000 mg/L
same,MIC,"[5]; CECT1078, read-out: MIC, 90 % growth inhibition, 90 %",750 mg/L
same,MIC,"[6]; ATCC204305, 100 % growth inhibition, read-out: MIC",> 4000 mg/L
same,MFC,"[6]; ATCC204305, read-out: MFC",> 4000 mg/L
same,MIC,[7]; [15],1000 mg/L
same,MFC,[7]; read-out: MFC,1000 mg/L
same,MIC,[8]; [15],> 4000 mg/L
same,MFC,[8]; read-out: MFC,> 4000 mg/L
same,MIC,[9]; [15],500 mg/L
same,MFC,[9]; read-out: MFC,1000 mg/L
same,concentrations effectively reducing NO production,[14],above 5 μM
